Test results: ChEMBL document CHEMBL1137902, “N-Sulfonyl homoserine lactones as antagonists of bacterial quorum sensing” (Bioorg Med Chem Lett, 2004)

Test system: Aliivibrio fischeri
Assay: Tested for the ability to interfere with the induction of luminescence by N-3-oxohexanoyl-L-homoserine lactone in the Vibrio fischeri QS system
Type: functional, organism-based

Structure (SMILES) | IC50 [µM]
O=C(CC(=O)NC1CCOC1=O)Cc1ccccc1 (centres undefined) | 2
O=C(CCCc1ccccc1)NC1CCOC1=O (centres undefined) | 2
CCCCCS(=O)(=O)NC1CCOC1=O (centres undefined) | 2
CCCCCCCS(=O)(=O)NC1CCOC1=O (centres undefined) | 9
O=C1OCCC1NS(=O)(=O)CCCc1ccccc1 (centres undefined) | 20
O=C1OCCC1NS(=O)(=O)CCc1ccccc1 (centres undefined) | 3
CCCCCCCCS(=O)(=O)NC1CCOC1=O (centres undefined) | 10
CCCCS(=O)(=O)NC1CCOC1=O (centres undefined) | 12
CCCCCCS(=O)(=O)NC1CCOC1=O (centres undefined) | 6.5
